This passage reports inhibition and IC50 results from patent publication US12358907B2, “Substituted pyrrolidine amides III” (GRÜNENTHAL GMBH, priority 2019, dated 2025).

Molecules are shown by their SMILES. Read-outs that look alike come from different tables or passages of the source.

Assay [1] deals with human glucocorticoid receptor (Homo sapiens (Human), UniProt P04150). Briefly: Human glucocorticoid receptor (hGR) ligand-binding assay (3H-dexamethasone competition, IM9 cytosol). The settings on record: read-out: % inhibition hGR at 1 μM. Here is the method:
Preferably, the glucocortitcoid receptor extracted from cytosol of IM9 cells is used for competitive radioligand binding assays to calculate percentage inhibition of the binding of radiolabeled ligand 3H-dexamethasone at the human glucocorticoid receptor.
The human lymphoblast cell line IM9 (ATCC, Bethesda, MD) was cultivated in RPMI 1640 media containing 10% fetal bovine serum, penicillin (100 U/ml), streptomycin (100 μg/ml), and 2 mM L-glutamine at 37° and 7% CO2 in a humidified incubator. Cells were centrifuged for 10 minutes at 1500 g and were washed in PBS and repelleted. Cell were then resuspended in homogenization buffer consisting of: 10 mM TES, 10 mM sodium molybdate, 1 mM EDTA, pH 7.4, 20 mM 2-mercaptoethanol, and 10% glycerol. Disruption of the cells was performed by nitrogen cavitation using 2×15 minutes at 600 to 750 psi nitrogen in a N2 cavitator at 0° C. The cell preparation was then centrifuged at 27,000 g for 15 minutes, and the resultant supernatant (=cytosol of IM9 cells) was centrifuged at 103,000 g for 60 minutes at 4° C. The amount of protein in the supernatant fraction was determined using a BCA assay kit and aliquots were snap frozen in a dry ice-acetone bath and stored at −70° C. Competitive binding assays were done in duplicate in homogenization buffer with a total volume of 200 μl. To this end, 1 mg of IM9 cytosol, 0.05 μCi (1.5 nM) of 3H-dexamethasone and unlabeled Example compounds as competitor compounds at 1 μM were mixed. The reaction was stopped after incubation at 0° C. for 16 to 18 hours by the addition of 100 μl of a charcoal-dextran mixture (2% activated charcoal, 0.5% dextran in 10 mM Tris, 1 mM EDTA, pH 7.4). Another incubation step at 0° C. for 10 minutes followed before the samples were centrifuged for 5 minutes at 8200 g. 100 μl of the supernatant) was finally assayed for radioactivity by liquid scintillationspectrometry, and percentage inhibition of 3H-dexamethasone binding was calculated.

Assay [2] addresses glucocorticoid receptor (GAL4 DBD-GR) (Homo sapiens (Human), UniProt P04150). The assay can be described thus: GR cell-based assays (GRE agonist / GRE antagonist), CHO-Gal4/GR luciferase reporter. An outline of the steps: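 CHO cells stably carrying GAL4 DBD-GR ligand-binding-domain fusion and a GAL4-UAS firefly luciferase reporter were treated in Opti-MEM with 8 half-log concentrations from 10 μM to 0.003 μM (0.5% DMSO, quadruplicates). Antagonist mode measured repression of beclomethasone-induced signal. Luminescence after lysis gave EC50 or IC50.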

human glucocorticoid receptor, sequence (P04150 whole entry): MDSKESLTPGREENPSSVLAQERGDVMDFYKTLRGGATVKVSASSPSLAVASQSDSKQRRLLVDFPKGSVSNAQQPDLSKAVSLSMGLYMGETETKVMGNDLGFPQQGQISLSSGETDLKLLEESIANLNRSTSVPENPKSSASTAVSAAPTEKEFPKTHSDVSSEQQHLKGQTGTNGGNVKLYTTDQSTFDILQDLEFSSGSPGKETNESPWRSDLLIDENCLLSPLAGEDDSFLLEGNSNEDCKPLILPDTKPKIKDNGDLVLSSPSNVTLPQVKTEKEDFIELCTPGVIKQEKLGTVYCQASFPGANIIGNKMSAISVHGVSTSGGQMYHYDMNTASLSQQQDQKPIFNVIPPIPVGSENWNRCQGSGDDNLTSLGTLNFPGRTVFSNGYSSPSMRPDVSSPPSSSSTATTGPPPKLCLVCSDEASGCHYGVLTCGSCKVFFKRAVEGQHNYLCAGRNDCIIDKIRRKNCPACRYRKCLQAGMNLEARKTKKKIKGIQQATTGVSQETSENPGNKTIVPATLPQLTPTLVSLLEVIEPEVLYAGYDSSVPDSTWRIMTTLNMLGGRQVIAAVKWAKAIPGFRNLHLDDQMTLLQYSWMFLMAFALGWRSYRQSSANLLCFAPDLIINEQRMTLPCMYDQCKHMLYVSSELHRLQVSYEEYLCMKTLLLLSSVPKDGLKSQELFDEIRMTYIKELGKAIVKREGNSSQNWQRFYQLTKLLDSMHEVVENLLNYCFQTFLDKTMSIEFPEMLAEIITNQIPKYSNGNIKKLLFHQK
glucocorticoid receptor (GAL4 DBD-GR), sequence (P04150 524-758): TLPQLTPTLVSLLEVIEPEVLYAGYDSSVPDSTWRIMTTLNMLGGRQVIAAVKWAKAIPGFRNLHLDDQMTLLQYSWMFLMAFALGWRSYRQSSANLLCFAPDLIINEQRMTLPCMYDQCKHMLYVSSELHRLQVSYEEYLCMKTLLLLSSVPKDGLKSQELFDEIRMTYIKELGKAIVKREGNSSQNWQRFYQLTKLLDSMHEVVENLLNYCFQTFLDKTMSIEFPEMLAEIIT

For `CC1(C)C(=O)N(c2ccc3c(cnn3-c3ccc(F)cc3)c2)[C@H](c2ccccc2)[C@H]1NC(=O)C1CC1` [Example 1, N-[(2R,3S)-1-[1-(4-Fluorophenyl)-1H-indazol-5-yl]-4,4-dimethyl-5-oxo-2-phenyl-pyrrolidin-3-yl]-cyclopropanecarboxylic acid amide], in assay [1], the inhibition at 1 µM amounted to 99%. The IC50 in assay [2] (CHO-Gal4/GR reporter cells, agonist mode (EC50) or antagonist mode against beclometasone (IC50), 6 hour incubation) is less than 100 nM. `CC(F)(F)C(=O)N[C@H]1[C@H](c2ccccc2)N(c2ccc3c(cnn3-c3ccc(F)cc3)c2)C(=O)C1(C)C` [Example 4, 2,2-Difluoro-N-[(2S,3R)-1-[1-(4-fluorophenyl)-1H-indazol-5-yl]-4,4-dimethyl-5-oxo-2-phenyl-pyrrolidin-3-yl]-propionamide]: the inhibition at 1 µM in assay [1] was determined as 95%. Besides, the half-inhibitory concentration (IC50) in assay [2] (read-out: IC50 or EC50) was in the range of 100 to 1000 nM. For `CC1(C)C(=O)N(c2ccc3c(cnn3-c3ccc(F)cc3)c2)[C@@H](c2ccccc2)[C@@H]1NC(=O)C1CC1` [Example 2, N-[(2S,3R)-1-[1-(4-Fluorophenyl)-1H-indazol-5-yl]-4,4-dimethyl-5-oxo-2-phenyl-pyrrolidin-3-yl]-cyclopropanecarboxylic acid amide], in that order: 91% and 100 to 1000 nM.

With `Cc1cnc(C(=O)N[C@@H]2[C@@H](c3ccccc3)N(c3ccc4c(cnn4-c4ccc(=O)n(C)c4)c3)C(=O)C2(C)C)s1` [Example 6, N-[(2R,3S)-4,4-Dimethyl-1-[1-(1-methyl-6-oxo-1H-pyridin-3-yl)-1H-indazol-5-yl]-5-oxo-2-phenyl-pyrrolidin-3-yl]-5-methyl-thiazole-2-carboxylic acid amide], in assay [1], the inhibition at 1 µM stood at 97%. For the same compound, the IC50 in assay [2] (read-out: IC50 or EC50) is 100 to 1000 nM. For `Cc1cc(C(=O)N[C@@H]2[C@@H](c3ccccc3)N(c3ccc4c(cnn4-c4ccc(=O)n(C)c4)c3)C(=O)C2(C)C)no1` [Example 7, N-((2R,3S)-4,4-dimethyl-1-(1-(1-methyl-6-oxo-1,6-dihydropyridin-3-yl)-1H-indazol-5-yl)-5-oxo-2-phenylpyrrolidin-3-yl)-5-methylisoxazole-3-carboxamide], in that order: 96% and 1000 to 15000 nM. The corresponding values for `O=C(N[C@@H]1[C@@H](c2ccccc2)N(c2ccc3c(cnn3-c3ccc(F)cc3)c2)C(=O)C12CC2)C1CC1` (racemic) [Example 3, N-[rac-(6R,7S)-5-[1-(4-Fluorophenyl)-1H-indazol-5-yl]-4-oxo-6-phenyl-5-azaspiro[2.4]heptan-7-yl]-cyclopropanecarboxylic acid amide] are 98% and less than 100 nM. The corresponding values for `O=C(N[C@@H]1[C@@H](c2ccccc2)N(c2ccc3c(ccn3-c3ccc(F)cc3)c2)C(=O)C12CC2)C1CC1` (racemic) [Example 5, N-trans-(5-(1-(4-fluorophenyl)-1H-indol-5-yl)-4-oxo-6-phenyl-5-azaspiro[2.4]heptan-7-yl)cyclopropanecarboxamide] are 95% and 100 to 1000 nM. Consider `Cn1cc(-n2ncc3cc(N4C(=O)C(C)(C)[C@H](NC(=O)c5cscn5)[C@H]4c4ccccc4)ccc32)ccc1=O` [Example 17, N-[(2R,3S)-4,4-Dimethyl-1-[1-(1-methyl-6-oxo-1H-pyridin-3-yl)-1H-indazol-5-yl]-5-oxo-2-phenyl-pyrrolidin-3-yl]-thiazole-4-carboxylic acid amide], for which the inhibition at 1 µM in assay [1] stood at 80%.
